We go through six compounds from the supplement of paper PMC11061612.

The subject of test [1] is COR-L23 (Non-Small Cell Lung Carcinoma). In words: Bliss excess, mean over the matrix (fraction); higher = more synergy. In outline:
(§1)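 After 24 hours at 37°C and 5% CO2 in 1536-well plates, cells in DMEM/F12 or RPMI plus 10% FBS received two-drug dose matrices for 72 hours. Viability came from CellTiter-Glo 2.0 luminescence and was scaled as inhibition, anchored at 0 by vehicle wells and at 1 by blank wells. Combination Emax is taken as the second-highest inhibition in the matrix, and Bliss excess as the observed combination effect less EA + EB − EA·EB, with EA and EB the single-agent effects.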

In test [2] the test system is SW780 (Bladder Carcinoma). The test is described as above. In outline:
as §1

The subject of test [3] is SW1783 (Low Grade Glioma). The description is as above. A digest of the protocol:
as §1

The subject of a further test is RH-1 (Ewing's Sarcoma). The test is described as above. In outline: as §1
Test [4] deals with DMS-273 (Small Cell Lung Carcinoma). The test is described as above. In outline: as §1
Test [5] has as its system HT-29 (Colorectal Carcinoma). Described as above. In outline:
as §1

In test [6] the test system is C3A (Hepatocellular Carcinoma). Described as above. A digest of the protocol: as §1
The test system of test [7] is SW756 (Cervical Carcinoma). The test is described as above. In outline:
as §1

In test [8] the test system is HCC2157 (Breast Carcinoma). The test is described as above. In outline:
as §1

For test [9], the system named is U-266 (Plasma Cell Myeloma). Described as above. In outline: as §1
For the next test, the system named is NCI-H2595 (Mesothelioma). The test is described as above. In outline: as §1
The subject of a further test is ES7 (Ewing's Sarcoma). In words: combination Emax (second highest fraction inhibited in the dose matrix, 72 h); higher = more inhibition; extreme values may be limits of the assay. A digest of the protocol: as §1
The subject of test [10] is 697 (B-Lymphoblastic Leukemia). The test is described as above. In outline: as §1
For test [11], the system named is JiyoyeP-2003 (Burkitt's Lymphoma). Described as above. In outline: as §1
Test [12] deals with HPAC (Pancreatic Carcinoma). The test is described as above. In outline: as §1
Test [13] has as its system DMS-273 (Small Cell Lung Carcinoma). Described as above. In outline:
as §1

Test [14] deals with SUIT-2 (Pancreatic Carcinoma). Described as above. A digest of the protocol:
as §1

In test [15] the test system is KM-H2 (Hodgkin's Lymphoma). The description is as above. A digest of the protocol: as §1
Test [16] concerns LU-99A (Non-Small Cell Lung Carcinoma). The description is as above. In outline: as §1
For test [17], the system named is U-266 (Plasma Cell Myeloma). Described as above. A digest of the protocol: as §1

Each structure is given as a SMILES string.
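For Bliss excess, mean over the matrix in this document: after 72 h of two-drug dosing.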

In the case of `CN(C)CCCOc1ccc(-c2ccc3ncc4c(c3c2)n(C2CCOCC2)c(=O)n4C)cn1` [AZD0156] + CCN(CCO)CCCOc1ccc2c(Nc3cc(CC(=O)Nc4cccc(F)c4)[nH]n3)ncnc2c1 [AZD2811] (first compound max 1 µM, 7x7, partner max 1 µM), the Bliss excess was -0.0073 in test [1]; -0.0268 in test [2]; -0.0452 in [3]; -0.0337 with RH-1 (Ewing's Sarcoma); 0.0307 in test [4]; -0.0109 in [5]. Besides, the Bliss excess in [6] is -0.0792; in [7], -0.016; in test [8] it was 0.112; in test [9] it was 0.0028; in the test on NCI-H2595 (Mesothelioma), -0.0334. Besides, the “combination Emax” value with ES7 (Ewing's Sarcoma) turned out to be 0.799; in test [10], 1; in [11] it was 0.408; in [12] it was 0.206; in test [13], 0.793; in test [14], 0.13. Further, the “combination Emax” value was determined as 0.327 in [15], 0.473 in test [16] and 0.299 in test [17].
Turning to `COc1nnc2ccc(N3CCC(c4ccc(OCCN5CCN(C)C(=O)[C@H]5C)cc4)CC3)nn12` [AZD5153] + CCN(CCO)CCCOc1ccc2c(Nc3cc(CC(=O)Nc4cccc(F)c4)[nH]n3)ncnc2c1 [AZD2811] (first compound max 1 µM, 7x7, partner max 1 µM), the Bliss excess in test [1] is -0.0551; in test [2] it was -0.0766; in test [3], -0.038; with RH-1 (Ewing's Sarcoma) it was 0.0025; in [4], -0.0409; in test [5], -0.0281. Further, the Bliss excess in test [6] is -0.0567; in test [7] it was -0.0067; in test [8], 0.0389; in [9], -0.0763; with NCI-H2595 (Mesothelioma) it was -0.0227. In addition, the “combination Emax” value in the test with ES7 (Ewing's Sarcoma) turned out to be 0.884; in test [10], 1; in test [11], 0.846; in test [12] it was 0.649; in test [13], 0.901; in test [14], 0.436. Moreover, the figures for the “combination Emax” value in test [15], in test [16] and in test [17] were 0.351, 0.505 and 0.279, respectively.
Take `CC1(C)CCC(CN2CCN(c3ccc(C(=O)NS(=O)(=O)c4ccc(NCC5CCOCC5)c([N+](=O)[O-])c4)c(Oc4cnc5[nH]ccc5c4)c3)CC2)=C(c2ccc(Cl)cc2)C1` [Venetoclax] + C[C@@H]1COCCN1C2=NC(=NC(=C2)C3(CC3)[S@](=N)(=O)C)C4=C5C=CNC5=NC=C4 [AZD6738] (first compound max 1 µM, 7x7, partner max 10 µM): the Bliss excess in [1] is -0.0392; in [2], -0.0299; in test [3], -0.0555; in the test with RH-1 (Ewing's Sarcoma), -0.0158; in [4], -0.0779; in [5] it was -0.0215. The Bliss excess in test [6] was -0.0503; in test [7], -0.0249; in test [8], 0.0204; in test [9], -0.0402; in the test with NCI-H2595 (Mesothelioma) it was 0.0027. The “combination Emax” value in the test with ES7 (Ewing's Sarcoma) was found to be 0.941; in test [10], 1; in [11], 0.954; in test [12] it was 0.611; in test [13], 0.809; in [14], 0.471. Besides, the “combination Emax” value in test [15] turned out to be 0.879; in test [16], 0.619; in test [17] it was 0.614.
As to `Cn1cnc2c(F)c(Nc3ccc(Br)cc3Cl)c(C(=O)NOCCO)cc21` [Selumetinib] + CCN(CCO)CCCOc1ccc2c(Nc3cc(CC(=O)Nc4cccc(F)c4)[nH]n3)ncnc2c1 [AZD2811] (first compound max 10 µM, 7x7, partner max 1 µM), the Bliss excess was 0.0428 in test [1]; -0.0198 in [2]; -0.0559 in test [3]; -0.0239 in the test on RH-1 (Ewing's Sarcoma); -0.0144 in [4]; -0.0042 in test [5]. Also, the Bliss excess is -0.0272 in [6]; -0.008 in test [7]; 0.0194 in test [8]; 0.0128 in [9]; -0.0185 in the test on NCI-H2595 (Mesothelioma). For the same compound, the “combination Emax” value with ES7 (Ewing's Sarcoma) is 0.792; in test [10] it was 1; in [11] it was 0.235; in test [12], 0.906; in test [13], 0.804; in test [14] it was 0.349. The “combination Emax” value in test [15] worked out at 0.168; in test [16], 0.453; in test [17] it was 0.594.
As for `COc1cccc(OCCCN)c1-c1cc(Nc2cnc(C#N)cn2)n[nH]1` [Prexasertib] + C[C@@H]1COCCN1C2=NC(=NC(=C2)C3(CC3)[S@](=N)(=O)C)C4=C5C=CNC5=NC=C4 [AZD6738] (first compound max 1 µM, 7x7, partner max 10 µM), the Bliss excess in test [1] was -0.0311; in test [2], 0.0009; in test [3], 0.0261; with RH-1 (Ewing's Sarcoma), 0.0014; in [4], -0.0374; in test [5], -0.0361. The Bliss excess in test [6] is -0.034; in test [7] it was -0.0307; in test [8] it was -0.0145; in test [9] it was -0.0859; in the test with NCI-H2595 (Mesothelioma), -0.0279. Further, the “combination Emax” value is 0.855 with ES7 (Ewing's Sarcoma); 1 in test [10]; 0.981 in [11]; 0.769 in [12]; 0.916 in [13]; 0.747 in test [14]. Besides, the results for the “combination Emax” value in test [15], in [16] and in [17] were 0.92, 0.767 and 0.65, respectively.
As to `NC1(C(=O)N[C@@H](CCO)c2ccc(Cl)cc2)CCN(c2ncnc3[nH]ccc23)CC1` [Capivasertib] + C[C@@H]1COCCN1C2=NC(=NC(=C2)C3(CC3)[S@](=N)(=O)C)C4=C5C=CNC5=NC=C4 [AZD6738] (first compound max 10 µM, 7x7, partner max 10 µM), the Bliss excess in test [1] is -0.0358; in [2], -0.0216; in test [3], -0.0511; with RH-1 (Ewing's Sarcoma), -0.0098; in test [4], -0.0377; in test [5] it was -0.0396. Also, the Bliss excess in test [6] was -0.0096; in test [7], 0.0407; in test [8] it was -0.0175; in test [9] it was -0.0793; in the test on NCI-H2595 (Mesothelioma), -0.0114. The “combination Emax” value stood at 0.889 in the test with ES7 (Ewing's Sarcoma); 1 in test [10]; 0.93 in test [11]; 0.545 in [12]; 0.856 in test [13]; 0.493 in test [14]. Further, the “combination Emax” value in [15] turned out to be 0.879; in [16] it was 0.63; in test [17], 0.365.
